One may read the pIC50 as the IC50 on a negative log10 scale, so that one unit is a factor of ten. Broadly, the MRT is a mean duration of stay, worked out from the concentration-time curve. The Cmax is the maximum level reached in the sampled fluid or tissue.

For one data set, the system named is NCI-H28 (NF2 wide-type). The data set is described as follows: Inhibition of cell proliferation (CellTiter-Lumi). The format is cell-based. Conditions: Homo sapiens, 72 h + another 72 h treatment. The procedure: (§1) NCI-H2052 (NF2 mutant), NCI-H226 (NF2 mutant), NCI-H2452 (NF2 wide-type), NCI-H28 (NF2 wide-type), and MSTO-211H (NF2 wide-type) cells were cultured in RPMI 1640 complete media.
(§2) The normally growing cells described above were digested with a trypsin cell-digesting solution, centrifuged, counted, and then plated in a 96-well plate at a density of 1000 cells per well. Administration was performed 24 h after the cell plating. Inhibitors at different concentration gradients were added at 10 µL per well, and three replicate wells were set for each concentration point. The starting concentration was 20 µM and diluted 8 times with a 4-fold gradient. A corresponding negative control group treated with 0.1% DMSO was also set up. After 72 h of drug treatment, the cell culture plate to be tested was taken out of the incubator. The culture medium in the 96-well plate was pipetted, and 190 µL of fresh RPMI 1640 complete medium was added. Another administration was performed, and the cells were cultured for another 72 h. The 96-well plate was taken out and allowed to equilibrate at room temperature for 10 min. […] After shaking for two minutes, the mixture was reacted at room temperature for 10 min. Then, 150 µL of liquid was pipetted from the transparent 96-well plate and transferred to a white 96-well plate for chemiluminescence reading. The background value was subtracted from the value for each well to calculate the cell survival rate. Survival rate (%) = […]. Sample is the chemiluminescence of the drug-treated group, and Vehicle is the […] of the DMSO control group. A sigmoidal dose-survival rate curve was plotted using a non-linear regression model in the GraphPad Prism 7.0 software, and the IC50 values or GI50 values were calculated.

In data set [1] the test system is NCI-H2452 (NF2 wide-type). Kind of data set: Inhibition of cell proliferation (CellTiter-Lumi). The format is cell-based. Conditions: Homo sapiens, 72 h + another 72 h treatment. The procedure:
as §1, §2

In data set [2] the test system is MSTO-211H (NF2 wide-type). The data set is described as follows: Inhibition of cell proliferation (CellTiter-Lumi). To be noted: Homo sapiens, 72 h + another 72 h treatment. The format is cell-based. As for the experimental part: as §1
The normally growing cells described above were digested with a trypsin cell-digesting solution, centrifuged, counted, and then plated in a 96-well plate at a density of 1000 cells per well. Administration was performed 24 h after the cell plating. Inhibitors at different concentration gradients were added at 10 µL per well, and three replicate wells were set for each concentration point. The starting concentration was 20 µM and diluted 8 times with a 4-fold gradient. A corresponding negative control group treated with 0.1% DMSO was also set up. After 72 h of drug treatment, the cell culture plate to be tested was taken out of the incubator. The culture medium in the 96-well plate was pipetted, and 190 µL of fresh RPMI 1640 complete medium was added. Another administration was performed, and the cells were cultured for another 72 h. The 96-well plate was taken out and allowed to equilibrate at room temperature for 10 min. The medium in the 96-well plate was pipetted, and 200 µL of CellTiter-Lumi™ luminescent cell viability detection solution (mixed with a medium in a ratio of 1:1) was added. After shaking for two minutes, the mixture was reacted at room temperature for 10 min. Then, 150 µL of liquid was pipetted from the transparent 96-well plate and transferred to a white 96-well plate for chemiluminescence reading. The background value was subtracted from the value for each well to calculate the cell survival rate. Survival rate (%) = […]. Sample is the chemiluminescence of the drug-treated group, and Vehicle is the […] of the DMSO control group. A sigmoidal dose-survival rate curve was plotted using a non-linear regression model in the GraphPad Prism 7.0 software, and the IC50 values or GI50 values were calculated.

The subject of data set [3] is YAP-TEAD transcription complex. The data set is described as follows: YAP-TEAD reporter gene assay (dual luciferase, stably transfected 293T cells). In kind it is cell-based. Conditions: Homo sapiens, HEK-293T; 293T reporter cells, 24 h of drug treatment; read-out: IC50. As for the experimental part:
YAP-TEAD reporter gene The YAP-TEAD reporter gene assay was performed as follows. Firstly, the 8xGTIIC promoter sequence ([…] GTACTGTTGGTAAA) was constructed into a pGL4.20(luc2-Puro) plasmid, and the TK promoter ([…]) unrelated to the hippo pathway was constructed into a pGL4.78(hRlucCP/Hygro) plasmid, thereby constructing stably transfected 293T cells that can stably and continuously express the transcriptional activity of the YAP-TEAD transcription complex. After selection and identification of individual clones, the clones were grown and maintained in a DMEM medium containing 10% fetal bovine serum, penicillin-streptomycin solution, 1 µg/mL puromycin, and 150 µg/mL hygromycin. To perform reporter gene assays with the compounds to be tested, the well-growing cells described above were plated in a 384-well plate at a cell density of 3000 cells per well, with 90 µL per well. The periphery was sealed with an appropriate amount of PBS to prevent evaporation of water from the peripheral wells. Administration was performed on the next day after the cell plating. The test compounds were added at different concentration gradients, and three replicate wells were set for each concentration point. The compound concentration started at 5 µM and was diluted seven times with a 5-fold gradient. A corresponding negative control group treated with DMSO was also set up. After 24 h of drug treatment, the detection reagents were prepared first. The Dual-Lumi™ Firefly luciferase detection reagent and Dual-Lumi™ Renilla luciferase detection buffer were dissolved and brought to room temperature. […]. According to the amount of 100 µL of Dual-Lumi™ Renilla luciferase detection working solution required for the detection of each sample, an appropriate amount of Dual-Lumi™ Renilla luciferase detection working solution was prepared. […]. The cell culture plate was taken out and allowed to equilibrate at room temperature for 10 min (usually no more than 30 min). Then, 100 µL of Dual-Lumi™ Firefly luciferase detection reagent was added to each well of a 96-well plate (25 µL per well for the 384-well plate), and the mixture was mixed well. The mixture was then incubated at room temperature (about 25 °C) for 10 min to stabilize the luminescent signal, and then chemiluminescence was detected using a multimode microplate reader with a chemiluminescence detection function. Subsequently, the detection of Renilla luciferase began. Firstly, 100 µL of Dual-Lumi™ Renilla luciferase detection working solution was added to each well of a […] (25 µL per well for the 384-well plate), and the mixture was mixed well. The mixture was then incubated at room temperature (about 25 °C) for 10 min to stabilize the luminescent signal. Finally, chemiluminescence was detected using a multimode microplate reader with a chemiluminescence detection function. The obtained data were analyzed using GraphPad Prism 7.0 software. A sigmoidal dose-survival rate curve was plotted using a non-linear regression model, and the IC50 values were calculated.
(A reporter such as luciferase makes a cellular process visible.)

Data set [4] is described as follows: Pharmacokinetic test in mice (low dose). To be noted: mouse, plasma, mice; for AUC(0-t): read-out: AUClast; for half-life: read-out: T1/2 (converted). The format is in vivo, Balb/c mice. As for the experimental part:
The compounds of the present disclosure were administered to Balb/c mice by single intravenous injection and oral gavage, and the plasma of the mice at each time point was collected. The concentration of the compounds to be tested in BALB/C plasma was detected using the LC-MS/MS analysis method, and pharmacokinetic analysis was performed.
The mixture was vortexed, shaken, and ultrasonicated. The remaining volume of 25% sulfobutylether-β-cyclodextrin (sterilized) was added to prepare the final concentration solution or suspension.
Intravenous injection formulations will be directly administered in animal experiments without filtration. The IV drug preparation vials were disinfected in an infrared sterilization cabinet one day in advance.
Intravenous injection: Administration was performed via the tail vein. After the needle was inserted, the syringe was slowly […].
Gavage: Gavage needle and syringe of an appropriate type were selected. The gavage needle was inserted from the root of the tongue into the esophagus until it reached near the cardia of the stomach, then the drug formulation was injected, and the gavage needle was withdrawn. When disposable plastic gavage needles were used, one needle was used for each group.
At each time point, 60 µL of whole blood was collected from the submandibular vein or tail vein (except for the IV group). The blood sample was added to a pre-cooled anticoagulant blood collection tube containing anticoagulant EDTA-K2 (1 µL, 15% EDTA-K2 solution), placed on wet ice, and centrifuged (3000 g, 4 °C, 10 min) within 1 h. The plasma was immediately collected after centrifugation, transferred to an EP tube, and stored at -90 °C to -60 °C.
Plasma concentration detection: A developed LC-MS/MS method was used to detect the compounds in plasma.
The plasma concentration-time data were analyzed using a non-compartmental model in the Phoenix® WinNonlin® (Version 8.2, Pharsight, Mountain View, CA).

The structures appear in SMILES notation. pIC50: −log10 of the molar value. Like-named read-outs stand apart in the source and are kept apart here.

In the case of `CP(C)(=O)c1ccc2c(c1)c1ncccc1n2-c1ccc(C(F)(F)F)cc1` [Example 4], the pIC50 was less than 5.90 with NCI-H28 (NF2 wide-type), less than 5.30 in data set [1], less than 5.90 in data set [2] and 6.91 in data set [3]. Besides, the MRT in data set [4] (IV 2 mg/kg) was determined as 6.4 h; in data set [4] (PO 10 mg/kg) it was 5.3 h. In addition, the figures for the AUC(0-t) in data set [4] (IV 2 mg/kg) and in data set [4] (PO 10 mg/kg) were 9.23 µM·h and 79 µM·h, respectively. Moreover, the clearance in data set [4] (IV 2 mg/kg, read-out: Cl (converted)) was 8.33 mL/min/kg. In addition, the half-life was 6.3 h in data set [4] (IV 2 mg/kg) and 3.3 h in data set [4] (PO 10 mg/kg). Moreover, the bioavailability in data set [4] (PO 10 mg/kg vs IV 2 mg/kg, read-out: F%) was 163%. Besides, the Cmax in data set [4] (PO 10 mg/kg, read-out: Cmax) is 9.36 µM.
On to `Cn1cnc(-c2cc(P(C)(C)=O)ccc2Nc2ccc(C(F)(F)F)cn2)c1` [Example 13], for which the negative-log IC50 (pIC50) was less than 5.30 in the data set with NCI-H28 (NF2 wide-type), less than 4.70 in data set [1], less than 4.70 in data set [2] and 6.46 in data set [3].
Consider `CP(C)(=O)c1cnc(Nc2ccc(C(F)(F)F)cc2)c(-n2cccn2)c1` [Example 18], for which the values for the pIC50 (in the data set on NCI-H28 (NF2 wide-type); in data set [1]; in data set [2]) were less than 4.70, less than 5.90 and less than 5.90, respectively.
Turning to `CP(C)(=O)c1ccc2c(c1)c1nccnc1n2-c1ccc(C(F)(F)F)cc1` [Example 19], the figures for the pIC50 (with NCI-H28 (NF2 wide-type); in data set [1]; in data set [2]) were less than 5.30, less than 5.30 and 6.20, respectively.
On to `CP(C)(=O)c1cnc(Nc2ccc(C(F)(F)F)cc2)c(-n2cc(C(F)(F)F)cn2)c1` [Example 20], for which the pIC50 in the data set on NCI-H28 (NF2 wide-type) is less than 4.70; in data set [2], less than 5.90; in data set [3], 6.36.

Source of the values: patent EP4596561A1, “PHOSPHORUS-CONTAINING COMPOUND, PHARMACEUTICAL COMPOSITION AND USE THEREOF” (Suzhou Genhouse Bio Co., Ltd., priority 2022, dated 2024).
